According to patent US20030148929A1, “Nucleic acid carriers and pharmaceutical compositions for gene therapy” (Hisamitsu Pharmaceutical Co., Inc., priority 1998, published 2003):

Columns and labels:
[1] = system: Balb/c mice; assay: Survival rate of mice singly administered with high doses of carrier; type: in vivo; conditions: pDBA, single
Procedure: The survival rate of mice was investigated in the manner described below when high doses of pDBA solution were directly administered to the mice.
pDBA was dissolved in physiological saline solution to prepare pDBA solutions having different concentrations. The pDBA solutions were administered to Balb/c mice intravenously through tail veins, and their symptoms were observed. pDBAs obtained in Synthetic Examples 1-7 (all listed in Table 2) were used. […]

[2] = system: HepG2 cells; assay: Introduction of FITC-labeled oligonucleotide into HepG2 cells using pDBA, flow cytometer; type: cell-based; conditions: HepG2, 4 hours, FIG. 11 and 12
Procedure: An oligonucleotide labeled with FITC (20 mer, Pharmacia Corporation) was used to assess the efficiency of introduction into cells for the. complexes of the oligonucleotide with various pDBAs.
HepG2 cells were inoculated onto a 12-well petri dish at 1×10^5 cells/well and cultured for 24 hours. The FITC-labeled oligonucleotide was used, and pDBAs obtained in Synthetic Examples 3 and 5 were used as the nucleic acid carriers. Complexes were prepared from these three kinds (pDBAs and the FITC-labeled oligonucleotide) such that the ratios of oligonucleotide/pDBA were 1/1, 1/5, and 1/10 (w/w). The complex solutions were added to the HepG2 cells; and after culturing for 4 hours, the cells were washed with PBS(−) twice. After removal of PBS(−), the cells were separated from the dish using a cell dissociation solution (SIGMA-Aldrich Corporation) and the cell suspensions were subjected to measurement with a flow cytometer (FACS Calibur available from Becton Dickinson). The results are shown in FIG. 11 (oligonucleotide/pDBA=1/5(w/w)), where M1 represents the results from control experiment and M2 represents the results from the experiment using the FITC-labeled oligonucleotide).

[3] = system: HepG2 cells; assay: Gene introduction into HepG2 cells with plasmid A/pDBA complexes, activity of the expressed luciferase; type: cell-based; conditions: plasmid/pDBA weight ratios 1/1 to 1/20 (w/w), FIG. 3
Procedure: A solution of a plasmid encoding the luciferase gene (about 5.25 kb: PicaGene control vector into which the luciferase gene was previously introduced (Toyo Ink Mfg. Co. Ltd.) that will be referred to as “plasmid A” hereinafter) and a solution of a nucleic acid carrier were prepared, respectively, at twice the desired concentration. Approximately 30 minutes prior to administration, the nucleic acid carrier solution was added dropwise to the plasmid solution with stirring to prepare a plasmid/(nucleic acid carrier) complex solution. DMEM medium (Sigma-Aldrich Corporation) was used as solvent. Specifically, a 25 μg/ml plasmid solution was prepared such that a plasmid/(nucleic acid carrier) complex solution having a plasmid concentration of 12.5 μg/ml would be used as an administration sample.
HepG2 cells were inoculated onto a 12-well multi-well plate (Coaster Inc.) at 1×10^5 cells/well one day prior to testing. […] The luciferase activity of the supernatant was measured on a Luciferase Assay System (Toyo Inc. Mfg. Co. Ltd.) using a luminometer (Lumit LB9501 available from Berthold Pty Ltd.). The protein concentration of the centrifuged supernatant was measured in a Protein Assay Kit (Bio-Rad Laboratories, Inc.) using a microplate reader (Rainbow Thermo available from Tecan U.S., Inc.). […]

[4] = system: Balb/c mice; assay: Gene introduction into mice with plasmid A/pDBA complexes given intravenously through tail veins, luciferase activity in tissues; type: in vivo; conditions: for luciferase activity in the liver: plasmid/pDBA 1/7 (w/w)
Procedure: A solution of plasmid A and a solution of pDBA were prepared, respectively, at twice the desired concentration. Approximately 30 minutes prior to administration, the pDBA solution was added dropwise to the plasmid solution with stirring to prepare a plasmid/(nucleic acid carrier) complex solution. DMEM medium was used as solvent. Specifically, a 50 μg/ml plasmid solution was prepared such that a plasmid/(nucleic acid carrier) complex solution having a plasmid concentration of 25.0 μg/ml would be used as an administration sample.
Complex solutions were prepared from pDBA obtained in Example 3 and plasmid A such that the weight ratio of plasmid/pDBA was 1/7 (w/w) and were administered to Balb/c mice intravenously through tail veins. The dose of plasmid A per mouse was 12.5 μg/0.5 ml. Two days and twenty one days after administration the luciferase activity was measured in the lung, the liver and the spleen whereby gene introduction to the respective were determined.
Complex solutions were prepared from pDBA obtained in Synthetic Example 3 and plasmid A such that different weight ratios of plasmid to pDBA (plasmid/pDBA=1/0, 1/1, 1/5, 1/10, and 1/20) were realized; and they were administered to Balb/c mice intravenously through tail veins.
Two days after administration the luciferase activity found in the liver was measured whereby gene introduction to the respective mouse tissues were determined.
Complexes were prepared from five kinds of pDBA obtained in Synthetic Examples 1, 2, 3, 4, and 5 (all listed in Table 2) and plasmid A such that the weight ratio of plasmid/pDBA was 1/5 (w/w); and they were administered to mice intravenously through tail veins. Two days after administration the luciferase activity in the liver was measured.
Similarly to Example 4, Plasmid A/pDBA complex solutions that were prepared were administered to Balb/C mice (8-week old male) intravenously through tail veins. Gene expression in the liver after administration was assessed by measuring the luciferase activity. pDBA obtained in Synthetic Example 3 in Table 2 was used to prepare a complex solution such that plasmid/pDBA was equal to 1/5 (w/W), which was used in the administration described above.

[5] = system: guinea pigs (Hartley line); conditions: guinea pig, in vivo

Poly(DL-2,4-diaminobutyric acid) Acetate [Synthetic Example 5]
Survival rate (survival number/case number) ([1]; dose 3.1 mg/kg iv, listed as 170, 3.1 mg/kg): 3/3 | Survival rate (survival number/case number) ([1]; dose 6.3 mg/kg iv, listed as 170, 6.3 mg/kg): 0/3

Poly(DL-2,4-diaminobutyric acid) Acetate [Synthetic Example 6]
Survival rate (survival number/case number) ([1]; dose 3.1 mg/kg iv, listed as 278, 3.1 mg/kg): 3/3 | Survival rate (survival number/case number) ([1]; dose 6.3 mg/kg iv, listed as 278, 6.3 mg/kg): 0/3

Poly(DL-2,4-diaminobutyric acid) Acetate [Synthetic Example 1]
Survival rate (survival number/case number) ([1]; dose 1.6 mg/kg iv): 3/3 | Survival rate (survival number/case number) ([1]; dose 3.1 mg/kg iv, listed as 12, 3.1 mg/kg): 3/3 | Survival rate (survival number/case number) ([1]; dose 6.3 mg/kg iv, listed as 12, 6.3 mg/kg): 3/3 | Survival rate (survival number/case number) ([1]; dose 12.5 mg/kg iv): 0/3 | cellular introduction / incorporation of the FITC-labeled oligonucleotide [2]: little incorporation of oligonucleotide

Poly(DL-2,4-diaminobutyric acid) Acetate [Synthetic Example 2]
Survival rate (survival number/case number) ([1]; dose 3.1 mg/kg iv, listed as 26, 3.1 mg/kg): 3/3 | Survival rate (survival number/case number) ([1]; dose 6.3 mg/kg iv, listed as 26, 6.3 mg/kg): 3/3

Poly(DL-2,4-diaminobutyric acid) Acetate [Synthetic Example 4]
Survival rate (survival number/case number) ([1]; dose 3.1 mg/kg iv, listed as 62, 3.1 mg/kg): 3/3 | Survival rate (survival number/case number) ([1]; dose 6.3 mg/kg iv, listed as 62, 6.3 mg/kg): 2/3

Poly(DL-2,4-diaminobutyric acid) Acetate [Synthetic Example 7]
Survival rate (survival number/case number) ([1]; dose 3.1 mg/kg iv, listed as 348, 3.1 mg/kg): 1/3 | Survival rate (survival number/case number) ([1]; dose 6.3 mg/kg iv, listed as 348, 6.3 mg/kg): 0/3

Poly(DL-2,4-diaminobutyric acid) Acetate [Synthetic Example 3]
Survival rate (survival number/case number) ([1]; dose 3.1 mg/kg iv, listed as 49, 3.1 mg/kg): 3/3 | Survival rate (survival number/case number) ([1]; dose 6.3 mg/kg iv, listed as 49, 6.3 mg/kg): 3/3 | gene expression (activity of the expressed luciferase) [3]: as the quantity of pDBA relative to plasmid increases, so does the gene expression | luciferase activity in the liver ([4]; 21 days after iv administration, FIG. 5B): maintained even 21 days after administration | duration of gene expression in the liver after a single administration ([4]; Balb/C mice, iv tail vein, plasmid A, plasmid/pDBA 1/5 (w/W), FIG. 8): ≥ 7 months | gene expression (luciferase activity in the liver) ([4]; two days after iv administration, plasmid/pDBA 1/0, 1/1, 1/5, 1/10, 1/20, FIG. 6): As the quantity of pDBA relative to the plasmid increases, the gene expression has the tendency to increase | luciferase activity in the liver ([4]; two days after iv administration, compared with plasmid only, FIG. 5A): markedly high luciferase activity | immunogenicity [5]: very low
